In experiment [1] the target is KRAS G12D binding to BRAF (Homo sapiens, UniProt P01116+P62937, G12D). As to the kind of experiment: KRAS-BRAF with CYPA (500 nM) interaction assay (TR-FRET), G12D. Format: biochemical. Particulars: 3 hours. The procedure:
(§1) Kras-BRAF with CYPA (500 nM) Interaction Assay In this example, TR-FRET was also used to measure the compound or compound-CYPA dependent disruption of the KRAS G12C-BRAF complex. This protocol was also used to measure disruption of KRAS G12D or KRAS G12V binding to BRAF by a compound of the invention, respectively. […] TR-FRET signal was read on a […] microplate reader (Ex320 nm, Em 665/615 nm). Compounds that facilitate disruption of the KRAS-BRAF complex were identified as those eliciting a decrease in the TR-FRET ratio relative to DMSO control wells.

Experiment [2] has as its system phosphorylation of ERK, KRAS G12C in NCI-H358 cells. As to the kind of experiment: pERK inhibition assay, G12C. Format: cell-based, human. The settings on record: NCI-H358, 4 hours of incubation. In short, it runs like this:
(§2)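 NCI-H358 (G12C), AGS (G12D) and SW620 (G12V) cells were seeded overnight at 30,000, 20,000 and 30,000 cells/well, respectively. They were then treated 4 h with compound (0.5% DMSO final), fixed, and methanol-permeabilized. pERK was detected by in-cell ELISA (anti-pERK/HRP, TMB, OD450); IC50 from a 4-parameter sigmoidal fit.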

For experiment [3], the system named is phosphorylation of ERK, KRAS G12V in SW620. The experiment can be described thus: pERK inhibition assay, G12V. Format: cell-based, human. The settings on record: SW620, 4 hours of incubation. Put shortly:
as §2

The test system of experiment [4] is NCI-H358 cells (KRAS G12C). As to the kind of experiment: Cell viability assay, G12C. The experiment is classed as cell-based, human. Particulars: NCI-H358, 72 hrs, Cell Counting Kit-8. In short, it runs like this:
(§3)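 Cells seeded at 5,000/well (NCI-H358) or 2,000/well (AGS, SW620), treated next day at 0.5% final DMSO for 72 h. Viability read by CCK-8 (OD450 minus OD650) after 2 h; IC50 from 4-parameter sigmoidal fit.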
In general terms: Formazan colour is commonly taken as a measure of viable cells.

The target in experiment [5] is KRAS G12V binding to BRAF (Homo sapiens, UniProt P01116+P62937, G12V). As to the kind of experiment: KRAS-BRAF with CYPA (500 nM) interaction assay (TR-FRET), G12V. The experiment is classed as biochemical. Particulars: 3 hours. As to the method: as §1
On the technique in general: In TR-FRET formats the signal depends on donor and acceptor labels being close together.

Experiment [6] has as its system phosphorylation of ERK, KRAS G12D in AGS cells. As to the kind of experiment: pERK inhibition assay, G12D. The experiment is classed as cell-based, human. Particulars: 4 hours of incubation. Put shortly:
as §2

The next experiment has as its system AGS cells (KRAS G12D). As to the kind of experiment: Cell viability assay, G12D. Format: cell-based, human. Particulars: 72 hrs, Cell Counting Kit-8. In short, it runs like this:
as §3

Experiment [7] addresses T1, KRAS G12C-BRAF complex (Homo sapiens, UniProt P01116+P62937, G12C).
T1 construct: expressed in transfected cells
As to the kind of experiment: KRAS-BRAF with CYPA (500 nM) interaction assay (TR-FRET), G12C. Format: biochemical. Particulars: 3 hours. As to the method: as §1

The subject of the next experiment is SW620 cells (KRAS G12V). The experiment can be described thus: Cell viability assay, G12V. The experiment is classed as cell-based, human. Particulars: SW620, 72 hrs, Cell Counting Kit-8. In short, it runs like this: as §3
Experiment [8] has as its target T1, KRAS G12C-BRAF complex. As to the kind of experiment: KRAS G12C-BRAF NanoBit assay in HEK293 cells. Format: cell-based. The settings on record: HEK293 stable cell pool, 3 hours of incubation. In short, it runs like this: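 HEK293 stable pool co-expressing SmBiT-KRAS G12C and BRAF RBD-LgBiT, exposed 3 h to compounds (16-point 3-fold dilution, top final 30 μM). Luminescence was read 20 min after Nano-Glo Live Cell substrate addition. A decrease versus DMSO control indicates disruption of the complex.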

Here are results for six molecules from patent US20250257075A1, “MACROCYCLIC INHIBITORS OF KRAS FOR THE TREATMENT OF CANCER” (Hoffmann-La Roche Inc., priority 2022, published 2025).

For orientation: IC50 means the point on the concentration scale where inhibition reaches its midpoint. The low end stands for greater potency in that assay, the high end for weaker potency in that assay.

Structures are written as SMILES.

KRAS G12D binding to BRAF, sequence (P01116 1-188 isoform P01116-2 G12D): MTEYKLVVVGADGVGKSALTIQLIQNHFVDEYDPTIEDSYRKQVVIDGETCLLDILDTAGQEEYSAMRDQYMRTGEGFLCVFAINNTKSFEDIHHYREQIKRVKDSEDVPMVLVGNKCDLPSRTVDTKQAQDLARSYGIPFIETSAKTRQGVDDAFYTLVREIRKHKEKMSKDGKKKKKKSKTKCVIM
KRAS G12D binding to BRAF, sequence (P62937 whole entry): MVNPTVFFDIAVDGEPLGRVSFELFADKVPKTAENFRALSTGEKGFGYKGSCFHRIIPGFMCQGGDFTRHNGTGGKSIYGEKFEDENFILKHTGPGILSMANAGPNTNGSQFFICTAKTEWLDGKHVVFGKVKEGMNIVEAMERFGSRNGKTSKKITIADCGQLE
T1 sequence (P01116 1-188 isoform P01116-2 G12C): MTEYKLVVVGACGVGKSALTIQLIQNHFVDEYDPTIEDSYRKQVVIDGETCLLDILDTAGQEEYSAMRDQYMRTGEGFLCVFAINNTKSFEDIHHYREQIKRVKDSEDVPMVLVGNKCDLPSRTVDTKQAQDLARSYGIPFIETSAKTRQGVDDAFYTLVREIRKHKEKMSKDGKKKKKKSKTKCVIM
T1 sequence (P62937 whole entry): as the sequence (P62937 whole entry) above
KRAS G12V binding to BRAF, sequence (P01116 1-188 isoform P01116-2 G12V): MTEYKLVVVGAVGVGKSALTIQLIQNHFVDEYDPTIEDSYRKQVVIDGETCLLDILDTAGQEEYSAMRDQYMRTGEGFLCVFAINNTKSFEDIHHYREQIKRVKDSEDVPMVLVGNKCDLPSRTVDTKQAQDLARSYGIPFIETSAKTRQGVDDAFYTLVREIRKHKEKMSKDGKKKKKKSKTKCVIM
KRAS G12V binding to BRAF, sequence (P62937 whole entry): as the sequence (P62937 whole entry) above

Consider `CO[C@@H](C)c1ncc(N2CCN(C)CC2)cc1-c1c2c3cc(c(F)cc3n1CC(F)(F)F)-c1csc(n1)C[C@H](NC(=O)[C@H](C(C)C)N(C)C(=O)[C@H]1CC[C@@H](C#CC(F)(F)F)CC1)C(=O)N1CCC[C@H](N1)C(=O)OCC(C)(C)C2` (atropisomer, axis not shown; (M)) [Example 10, cis-N-[(1S)-1-[[(7S,13S)-24-fluoro-(20M)-20-[2-[(1S)-1-methoxyethyl]-5-(4-methylpiperazin-1-yl)-3-pyridyl]-17,17-dimethyl-8,14-dioxo-21-(2,2,2-trifluoroethyl)-15-oxa-4-thia-9,21,27,28-tetrazapentacyclo[17.5.2.1^2,5.1^9,13.0^22,26]octacosa-1(25),2,5(28),19,22(26),23-hexaen-7-yl]carbamoyl]-2-methyl-propyl]-N-methyl-4-(3,3,3-trifluoroprop-1-ynyl)cyclohexanecarboxamide], for which the IC50 in experiment [1] came to 1.91 µM; in [2] (Homo sapiens), 0.048 µM; in experiment [3] (Homo sapiens, SW-620) it was 0.065 µM; in experiment [4] (Homo sapiens) it was 0.078 µM; in experiment [5], 1.48 µM; in experiment [6] (Homo sapiens), 0.152 µM. Besides, the half-maximal inhibitory concentration (IC50) is 0.876 µM in the experiment on AGS cells (KRAS G12D) (Homo sapiens); greater than 10 µM against KRAS G12C-BRAF complex [7]; greater than 5 µM in the experiment with SW620 cells (KRAS G12V) (Homo sapiens, SW-620); 0.12 µM against KRAS G12C-BRAF complex [8].

Turning to `CO[C@@H](C)c1ncc(N2CCN(C)CC2)cc1-c1c2c3c(F)c(ccc3n1CC(F)(F)F)-c1csc(n1)C[C@H](NC(=O)[C@H](C(C)C)N(C)C(=O)[C@H]1C[C@@H](C#CC(F)(F)F)C1)C(=O)N1CCC[C@H](N1)C(=O)OCC(C)(C)C2` (atropisomer, axis not shown; (M)) [Example 12, cis-N-[(1S)-1-[[(7S,13S)-25-fluoro-(20M)-20-[2-[(1S)-1-methoxyethyl]-5-(4-methylpiperazin-1-yl)-3-pyridyl]-17,17-dimethyl-8,14-dioxo-21-(2,2,2-trifluoroethyl)-15-oxa-4-thia-9,21,27,28-tetrazapentacyclo[17.5.2.1^2,5.1^9,13.0^22,26]octacosa-1(25),2,5(28),19,22(26),23-hexaen-7-yl]carbamoyl]-2-methyl-propyl]-N-methyl-3-(3,3,3-trifluoroprop-1-ynyl)cyclobutanecarboxamide], the IC50 in experiment [1] is 1.47 µM; in experiment [2] (Homo sapiens), 0.092 µM; in [3] (Homo sapiens, SW-620) it was 0.201 µM; in [4] (Homo sapiens), 0.033 µM; in experiment [5], 0.484 µM; in [6] (Homo sapiens), 0.667 µM. Moreover, the IC50 in the experiment on AGS cells (KRAS G12D) (Homo sapiens) came to 3.1 µM; on KRAS G12C-BRAF complex [7], 0.063 µM; in the experiment on SW620 cells (KRAS G12V) (Homo sapiens, SW-620), 0.36 µM; against KRAS G12C-BRAF complex [8], 0.067 µM.

Take `CO[C@@H](C)c1ncc(N2CCN(C)CC2)cc1-c1c2c3cc(c(F)cc3n1CC(F)(F)F)-c1csc(n1)C[C@H](NC(=O)[C@H](C(C)C)N(C)C(=O)[C@H]1C[C@@H](C#Cc3ncc(C(F)(F)F)cn3)C1)C(=O)N1CCC[C@H](N1)C(=O)OCC(C)(C)C2` (atropisomer, axis not shown; (M)) [Example 13, cis-N-[(1S)-1-[[(7S,13S)-24-fluoro-(20M)-20-[2-[(1S)-1-methoxyethyl]-5-(4-methylpiperazin-1-yl)-3-pyridyl]-17,17-dimethyl-8,14-dioxo-21-(2,2,2-trifluoroethyl)-15-oxa-4-thia-9,21,27,28-tetrazapentacyclo[17.5.2.1^2,5.1^9,13.0^22,26]octacosa-1(25),2,5(28),19,22(26),23-hexaen-7-yl]carbamoyl]-2-methyl-propyl]-N-methyl-3-[2-[5-(trifluoromethyl)pyrimidin-2-yl]ethynyl]cyclobutanecarboxamide]: the IC50 in experiment [1] is greater than 10 µM; in [2] (Homo sapiens), 0.045 µM; in [3] (Homo sapiens, SW-620), 0.056 µM; in [4] (Homo sapiens) it was 0.006 µM; in experiment [5], greater than 10 µM; in [6] (Homo sapiens), 1.81 µM. Besides, the IC50 in the experiment on AGS cells (KRAS G12D) (Homo sapiens) worked out at 0.328 µM; at KRAS G12C-BRAF complex [7], 0.065 µM; in the experiment with SW620 cells (KRAS G12V) (Homo sapiens, SW-620), 0.036 µM; at KRAS G12C-BRAF complex [8], 0.22 µM.

With `CCn1c(-c2cc(N3CCN(C)CC3)cnc2[C@H](C)OC)c2c3cc(c(F)cc31)-c1csc(n1)C[C@H](NC(=O)[C@H](C(C)C)N(C)C(=O)N1CC(C#CC(F)(F)F)C1)C(=O)N1CCC[C@H](N1)C(=O)OCC(C)(C)C2` (atropisomer, axis not shown; (M)) [Example 14, N-[(1S)-1-[[(7S,13S)-21-ethyl-24-fluoro-(20M)-20-[2-[(1S)-1-methoxyethyl]-5-(4-methylpiperazin-1-yl)-3-pyridyl]-17,17-dimethyl-8,14-dioxo-15-oxa-4-thia-9,21,27,28-tetrazapentacyclo[17.5.2.1^2,5.1^9,13.0^22,26]octacosa-1(25),2,5(28),19,22(26),23-hexaen-7-yl]carbamoyl]-2-methyl-propyl]-N-methyl-3-(3,3,3-trifluoroprop-1-ynyl)azetidine-1-carboxamide], the IC50 in [1] came to 4.3 µM; in experiment [2] (Homo sapiens) it was 0.005 µM; in experiment [3] (Homo sapiens, SW-620), 0.003 µM; in experiment [4] (Homo sapiens), 0.001 µM; in [5] it was 1.88 µM; in [6] (Homo sapiens), 0.02 µM. For the same molecule, the IC50 in the experiment on AGS cells (KRAS G12D) (Homo sapiens) is greater than 10 µM; at KRAS G12C-BRAF complex [7] it was 1.66 µM; with SW620 cells (KRAS G12V) (Homo sapiens, SW-620), 0.007 µM; on KRAS G12C-BRAF complex [8], 0.036 µM.

Regarding `CO[C@@H](C)c1ncc(N2CCN(C)CC2)cc1-c1c2c3cc(c(F)cc3n1CC(F)(F)F)-c1csc(n1)C[C@H](NC(=O)[C@H](C(C)C)N(C)C(=O)[C@H]1C[C@@H](C#Cc3ncccn3)C1)C(=O)N1CCC[C@H](N1)C(=O)OCC(C)(C)C2` (relative stereo) [Example 5, cis-N-[(1S)-1-[[(7S,13S)-24-fluoro-(20M)-20-[2-[(1S)-1-methoxyethyl]-5-(4-methylpiperazin-1-yl)-3-pyridyl]-17,17-dimethyl-8,14-dioxo-21-(2,2,2-trifluoroethyl)-15-oxa-4-thia-9,21,27,28-tetrazapentacyclo[17.5.2.1^2,5.1^9,13.0^22,26]octacosa-1(25),2,5(28),19,22(26),23-hexaen-7-yl]carbamoyl]-2-methyl-propyl]-N-methyl-3-(2-pyrimidin-2-ylethynyl)cyclobutanecarboxamide], the IC50 in experiment [1] was 9.95 µM; in [2], 0.058 µM; in experiment [3] it was less than 0.001 µM; in experiment [4] it was 0.007 µM; in experiment [5], 1.1 µM; in experiment [6], 0.145 µM. Also, the IC50 in the experiment with AGS cells (KRAS G12D) was found to be 0.536 µM; against KRAS G12C-BRAF complex [7], 0.128 µM; with SW620 cells (KRAS G12V), 0.23 µM; on KRAS G12C-BRAF complex [8] it was 0.106 µM.

For the molecule `CO[C@@H](C)c1ncc(N2CCN(C)CC2)cc1-c1c2c3cc(c(F)cc3n1CC(F)(F)F)-c1csc(n1)C[C@H](NC(=O)[C@@H](CC(=O)N1CC(C#CC(F)(F)F)C1)C(C)C)C(=O)N1CCC[C@H](N1)C(=O)OCC(C)(C)C2` [Example 19, (2S)—N-[(7S,13S)-24-fluoro-(20M)-20-[2-[(1S)-1-methoxyethyl]-5-(4-methylpiperazin-1-yl)-3-pyridyl]-17,17-dimethyl-8,14-dioxo-21-(2,2,2-trifluoroethyl)-15-oxa-4-thia-9,21,27,28-tetrazapentacyclo[17.5.2.1^2,5.1^9,13.0^22,26]octacosa-1(25),2,5(28),19,22(26),23-hexaen-7-yl]-2-isopropyl-4-oxo-4-[3-(3,3,3-trifluoroprop-1-ynyl)azetidin-1-yl]butanamide], the IC50 in [1] is greater than 10 µM; in experiment [2] (Homo sapiens), 0.221 µM; in [3] (Homo sapiens, SW-620), 0.198 µM; in experiment [4] (Homo sapiens), 0.166 µM; in experiment [5], 2.25 µM; in [6] (Homo sapiens), greater than 10 µM. Moreover, the IC50 with AGS cells (KRAS G12D) (Homo sapiens) worked out at 3.34 µM; against KRAS G12C-BRAF complex [7], 0.24 µM; with SW620 cells (KRAS G12V) (Homo sapiens, SW-620) it was 0.653 µM; on KRAS G12C-BRAF complex [8], 0.075 µM.
